Measured values published in publication PMC10531346, “Structural Similarities and Overlapping Activities among Dihydroflavonol 4-Reductase, Flavanone 4-Reductase, and Anthocyanidin Reductase Offer Metabolic Flexibility in the Flavonoid Pathway” (International Journal of Molecular Sciences, 2023).

How the values were obtained:
SbFNR1 [1] = target: T1, SbFNR1 (Sorghum bicolor, UniProt C5YGL7); assay: SbFNR1 activity assay (dihydroflavonols, flavanones, anthocyanidins); format: biochemical; conditions: anthocyanidin reduction
SbFNR2 = SbFNR2 activity assay (dihydroflavonols, flavanones, anthocyanidins); format: biochemical, Sorghum bicolor; conditions: anthocyanidin reduction
PvDFRa [2] = target: T2, PvDFRa (Panicum virgatum, UniProt A0A8T0SQV2); assay: PvDFRa activity against anthocyanidins (ANR activity); format: biochemical; conditions: anthocyanidin reduction
Procedure: (§1) To measure any overlapping specificity among FNR, DFR, and ANR for anthocyanidins, their activity against cyanidin, pelargonidin, and delphinidin were assayed.
(§2) LC-MS was used to analyze the various flavonoids using a Waters Xevo TQ-MS mass spectrometer interfaced with a Waters Acquity UPLC. […] The chromatographic conditions used were based on. The mobile phase used was a binary gradient of water with 0.1% (v/v) formic acid (Solvent A) and methanol with 0.1% formic acid (Solvent B). The solvent flow rate was 0.2 mL min^-1. and the initial solvent composition was 20% B/80% A and was constant for the first minute following sample injection. Gradient elution was accomplished by increasing the ratio of solvent B to solvent A from 20:80 to 65:35 over 10 min. using a linear gradient, and then increased to 100:0 over the next 4 min. The composition was maintained at 100% B for 5 min., returned to 80%A/20%B over the next 3 min., and held at that ratio for the next 3 min. […]
(§3) Appropriate daughter ions to be used for multiple reaction monitoring (MRM) of (-)-epicatechin were identified by infusing standard and recording spectra. The optimum cone voltage and collision energy of epicatechin were also determined in these infusion experiments. […]

SbDFR3 = SbDFR3 (Sorghum bicolor, UniProt C5XVF8); assay: SbDFR3 activity against anthocyanidins (ANR activity); format: biochemical; conditions: anthocyanidin reduction
Procedure: as §1, §2, §3

PvDFRa [3] = target: T2, PvDFRa; assay: Isothermal titration calorimetry, PvDFRa; format: binding; conditions: ITC
Procedure: In order to obtain thermodynamic parameters for the association, isothermal titration calorimetry (ITC) for PvDFRa was performed (Figure S8, Table 2).
Isothermal Titration Calorimetry: Purified PvDFR was dialyzed to a buffer containing 50 mM Bis-Tris, 50 mM Tricine (pH 6.5), 200 mM NaCl and 2.5% (v/v) glycerol. Substrates were dissolved in the same buffer used for enzyme dialysis. Analysis was conducted utilizing a Microcal ITC 200 (Malvern). […] A total of 22 injections were made, each with a volume of 2 uL. Data analysis was conducted utilizing Origin Software 7 and modeled to the appropriate nonlinear regression.

SbFNR1 [4] = target: T1, SbFNR1; assay: Isothermal titration calorimetry, SbFNR1; format: binding; conditions: ITC

Compound | efficiency relative to the activity of SbANR (SbFNR1 [1]) | efficiency relative to the activity of SbANR (SbFNR2) | activity as % of the activity of SbANR (PvDFRa [2]) | activity as % of the activity of SbANR (SbDFR3) | NADP^+-binding affinity relative to affinity for DHQ (PvDFRa [3]) | ∆H (PvDFRa [3]; 298 K) | ∆S (PvDFRa [3]; 298 K) | ∆H (SbFNR1 [4]) | ∆S (SbFNR1 [4])
Oc1cc(O)c2cc(O)c(-c3ccc(O)c(O)c3)[o+]c2c1 [cyanidin] | 11.9% | 7.4% | 0.5% | 0.9% | – | – | – | – | –
Oc1ccc(-c2[o+]c3cc(O)cc(O)c3cc2O)cc1 [pelargonidin] | 2.1% | 42.7% | 13.8% | 2.3% | – | – | – | – | –
NADP^+ | – | – | – | – | roughly 100 times | -9.41 ± 0.15 kcal/mol | −0.226 Cal mol^−1 K^−1 | -1.12 ± 0.72 kcal/mol | −15.4 Cal mol^−1 K^−1
